Experimental data reported in patent US20070172436A1 (priority 2006, published 2007).

Columns and labels:
[1] = Solubilization of ascorbic acid in propylene glycol at room temperature, with or without urea; assay type: physicochemical; conditions: 7.0% ascorbic acid, 5.0% urea, 88.0% propylene glycol, stirring about 16 hours
Description: The solubilization process was carried out at room temperature.
The two sets of experiments (EXAMPLE 5 and EXAMPLE 6) were carried out side by side for comparison.

[2] = Solubilization of ascorbic acid in absolute ethanol at room temperature, with or without urea; conditions: 2.00% urea, 95.50% ethanol, stirring about 16 hours
Description: The solubilization process was conducted at room temperature.
The mixture was kept at room temperature, while stirring until dissolved. Vitamin E acetate was added to the mixture. Vitamin E acetate was solubilized in the mixture.

[3] = co-pending application Ser. No. 11/242,306; cited from earlier work

Structure (SMILES)	dissolution in propylene glycol [1]	dissolution in absolute ethanol [2]	concentration of dissolved ascorbic acid in nonaqueous alcohol solvents with urea and/or urea derivatives [3] [% by weight]
NC(N)=O [urea, Urea]	completely dissolved	completely dissolved	
O=C1O[C@H]([C@@H](O)CO)C(O)=C1O [ascorbic acid, L-ascorbic acid]			≤ 28
